We go through 30 molecules from US20110105509A1 (Wyeth, LLC, priority 2009, published 2011).

Broadly, the IC50 is the point on the concentration scale where inhibition reaches its midpoint. Low values mean inhibition by little substance, high ones a need for much substance.

The test addresses T1, CRTH2 (Homo sapiens, UniProt Q9Y5Y4).
T1 construct: expressed in transfected cells; host or cells: CHO cells
T1 sequence (Q9Y5Y4 1-395): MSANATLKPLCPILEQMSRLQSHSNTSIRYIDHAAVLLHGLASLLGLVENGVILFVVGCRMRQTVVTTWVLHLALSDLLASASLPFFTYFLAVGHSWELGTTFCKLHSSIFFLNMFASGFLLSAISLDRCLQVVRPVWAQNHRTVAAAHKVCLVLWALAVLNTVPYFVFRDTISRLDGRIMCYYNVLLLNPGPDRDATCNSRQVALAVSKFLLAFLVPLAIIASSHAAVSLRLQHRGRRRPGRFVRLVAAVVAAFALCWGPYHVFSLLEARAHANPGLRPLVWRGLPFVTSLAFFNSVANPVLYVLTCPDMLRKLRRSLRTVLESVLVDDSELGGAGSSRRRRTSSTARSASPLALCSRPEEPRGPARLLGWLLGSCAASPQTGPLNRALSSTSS
In words: FRET based competitive immunoassay (cAMP) in CRTH2 expressing CHO cells. The class given is cell-based. The settings on record: CRTH2 expressing CHO cells incubated with forskolin and PGD2; Eu3+ cryptate-labeled anti-cAMP and d2-labeled cAMP. The procedure: FRET Assay: To evaluate potency compounds were tested in a FRET based competitive immunoassay in which CRTH2 expressing CHO cells were incubated in the presence of forskolin and PGD2 along with Eu3+ cryptate-labeled anti-cAMP and d2-labeled cAMP.
Take `Cc1c(Cc2nn(Cc3ccccc3)c(=O)c3ccccc23)c2cc(Cl)ccc2n1CC(=O)O` [Example 84, 2-(3-((3-Benzyl-4-oxo-3,4-dihydrophthalazin-1-yl)methyl)-5-chloro-2-methyl-1H-indol-1-yl)acetic acid]: the IC50 turned out to be 28 nM.

`Cc1c(-c2nn(Cc3ccccc3)c(=O)c3ccccc23)c2ccccc2n1CC(N)=O` [Example 47, 2-(3-(3-Benzyl-4-oxo-3,4-dihydrophthalazin-1-yl)-2-methyl-1H-indol-1-yl)-acetamide] came in with an IC50 above 2000 nM. For the molecule `Cc1c(-c2ccc(=O)n(Cc3nnc[nH]3)n2)c2cc(F)ccc2n1CC(=O)O` [Example 260a, 2-(3-(1-((4H-1,2,4-triazol-3-yl)methyl)-6-oxo-1,6-dihydropyridazin-3-yl)-5-fluoro-2-methyl-1H-indol-1-yl)acetic acid], the IC50 came to 3380 nM.

With `Cc1c(-c2cn(CC(O)(C(F)(F)F)C(F)(F)F)c(=O)c3ccccc23)c2cc(F)ccc2n1CC(=O)O` [Example 255, 2-(5-fluoro-2-methyl-3-(1-oxo-2-(3,3,3-trifluoro-2-hydroxy-2-(trifluoro-methyl)propyl)-1,2-dihydroisoquinolin-4-yl)-1H-indol-1-yl)acetic acid], the IC50 worked out at 55 nM.

With `Cc1c(-c2nn(Cc3ccccc3)c(=O)c3ccccc23)c2cc(S(C)(=O)=O)cc(F)c2n1CC(=O)O` [Example 15, 2-(3-(3-Benzyl-4-oxo-3,4-dihydrophthalazin-1-yl)-7-fluoro-2-methyl-5-(methylsulfonyl)-1H-indol-1-yl)acetic acid], the IC50 worked out at 214 nM. In the case of `Cc1c(-c2cn(C(C)C)c(=O)c3c2CCCC3)c2cc(F)ccc2n1CC(=O)O` [Example 91, 2-(5-fluoro-3-(2-isopropyl-1-oxo-1,2,5,6,7,8-hexahydroisoquinolin-4-yl)-2-methyl-1H-indol-1-yl)acetic acid], the IC50 was 107 nM. The result for `Cc1c(-c2ccc(=O)n(Cc3cccc(F)c3F)c2)c2cc(F)ccc2n1CCC(=O)O` [Example 303, 3-(3-(1-(2,3-difluorobenzyl)-6-oxo-1,6-dihydropyridin-3-yl)-5-fluoro-2-methyl-1H-indol-1-yl)propanoic acid] reads above 2000 nM; that for `Cc1c(-c2ccc(=O)n(C(C)C)n2)c2cc(Cl)cc(Cl)c2n1CC(=O)O` [Example 235, 2-(5,7-dichloro-3-(1-isopropyl-6-oxo-1,6-dihydropyridazin-3-yl)-2-methyl-1H-indol-1-yl)acetic acid], 1580 nM. Then `Cc1c(Cc2ccc(=O)n(Cc3ccc(F)cc3F)n2)c2cc(F)ccc2n1CC(=O)NS(C)(=O)=O` [Example 320, 2-(3-((1-(2,4-difluorobenzyl)-6-oxo-1,6-dihydropyridazin-3-yl)methyl)-5-fluoro-2-methyl-1H-indol-1-yl)-N-(methylsulfonyl)acetamide], with above 1000 nM; and `CCn1nc(-c2c(C)n(CC(=O)O)c3ccc(F)cc23)ccc1=O` [Example 160, 2-(3-(1-ethyl-6-oxo-1,6-dihydropyridazin-3-yl)-5-fluoro-2-methyl-1H-indol-1-yl)acetic acid], with 375 nM; and `Cc1ccccc1S(=O)(=O)NC(=O)Cn1c(C)c(-c2ccc(=O)n(Cc3ccccc3)c2)c2cc(F)ccc21` [Example 314, 2-(3-(1-Benzyl-6-oxo-1,6-dihydropyridin-3-yl)-5-fluoro-2-methyl-1H-indol-1-yl)-N-(o-tolyl-sulfonyl)acetamide], with above 1000 nM.

`Cc1c(-c2cn(CC(F)(F)F)c(=O)c3ccccc23)c2ccccc2n1CC(=O)O` [Example 251, 2-(2-methyl-3-(1-oxo-2-(2,2,2-trifluoroethyl)-1,2-dihydroisoquinolin-4-yl)-1H-indol-1-yl)acetic acid] gave an IC50 of 205 nM. `Cc1c(-c2cn(CCCC(F)(F)F)c(=O)c3c2CCCC3)c2cc(F)ccc2n1CC(=O)O` [Example 89, 2-(5-fluoro-2-methyl-3-(1-oxo-2-(4,4,4-trifluorobutyl)-1,2,5,6,7,8-hexahydro-isoquinolin-4-yl)-1H-indol-1-yl)acetic acid] had an IC50 of 123 nM. Molecule `Cc1cc(Cn2nc(-c3c(C)n(CC(=O)O)c4ccc(F)cc34)ccc2=O)c2ccccc2n1` [Example 158, 2-(5-fluoro-2-methyl-3-(1-((2-methylquinolin-4-yl)methyl)-6-oxo-1,6-dihydro-pyridazin-3-yl)-1H-indol-1-yl)acetic acid] showed an IC50 of 73 nM. `Cc1c(-c2ccc(=O)n(Cc3ccccc3)n2)c2cc(F)cc(S(C)(=O)=O)c2n1CC(=O)O` [Example 236, 2-(3-(1-benzyl-6-oxo-1,6-dihydropyridazin-3-yl)-5-fluoro-2-methyl-7-(methyl-sulfonyl)-1H-indol-1-yl)acetic acid] registered an IC50 above 1000 nM. The result for `Cc1c(-c2nn(Cc3ccc(Cl)c(F)c3)c(=O)c3ccccc23)c2cc(Cl)ccc2n1CC(=O)O` [Example 2, 2-(5-Chloro-3-(3-(4-chloro-3-fluorobenzyl)-4-oxo-3,4-dihydrophthalazin-1-yl)-2-methyl-1H-indol-1-yl)acetic acid] reads 18 nM; that for `CC(=O)Nc1cccc2c1c(Cc1ccc(=O)n(Cc3ccc(F)cc3F)n1)c(C)n2CC(=O)O` [Example 55, 2-(4-Acetamido-3-((1-(2,4-difluorobenzyl)-6-oxo-1,6-dihydropyridazin-3-yl)-methyl)-2-methyl-1H-indol-1-yl)acetic acid], above 2000 nM.

With `Cc1c(-c2nn(Cc3ccc(OC(F)(F)F)cc3)c(=O)c3ccccc23)c2cc(F)ccc2n1CC(=O)O` [Example 117, 2-(5-fluoro-2-methyl-3-(4-oxo-3-(4-(trifluoromethoxy)benzyl)-3,4-dihydro-phthalazin-1-yl)-1H-indol-1-yl)acetic acid], the half-inhibitory concentration (IC50) worked out at 22 nM. The result for `Cc1c(-c2nn(Cc3ccccn3)c(=O)c3ccccc23)c2cc(F)ccc2n1CC(=O)O` [Example 136, 2-(5-fluoro-2-methyl-3-(4-oxo-3-(pyridin-2-ylmethyl)-3,4-dihydrophthalazin-1-yl)-1H-indol-1-yl)acetic acid] reads 4 nM; that for `Cc1ccc2c(c1)c(-c1ccc(=O)n(Cc3ccccc3)n1)c(C)n2CC(=O)O` [Example 191, 2-(3-(1-benzyl-6-oxo-1,6-dihydropyridazin-3-yl)-2,5-dimethyl-1H-indol-1-yl)acetic acid], 64 nM; that for `Cc1c(-c2ccc(=O)n(C(C)C)n2)c2cc(F)cc(Cl)c2n1CC(=O)O` [Example 232, 2-(7-chloro-5-fluoro-3-(1-isopropyl-6-oxo-1,6-dihydropyridazin-3-yl)-2-methyl-1H-indol-1-yl)acetic acid], 1080 nM.

As for `Cc1c(-c2nn(Cc3ccc(C(F)(F)F)cc3)c(=O)c3ccccc23)c2ccccc2n1CC(=O)O` [Example 171, 2-(2-methyl-3-(4-oxo-3-(4-(trifluoromethyl)benzyl)-3,4-dihydrophthalazin-1-yl)-1H-indol-1-yl)acetic acid], the IC50 stood at 296 nM. Consider `Cc1c(Cc2ccc(=O)n(Cc3cccc(F)c3F)n2)c2cc(F)ccc2n1CC(=O)O` [Example 339, (3-{[1-(2,3-difluorobenzyl)-6-oxo-1,6-dihydropyridazin-3-yl]methyl}-5-fluoro-2-methyl-1H-indol-1-yl)acetic acid], for which the IC50 was 4 nM. Against the preceding molecule, the IC50 is about 74-fold lower. In turn, `Cc1c(-c2nn(Cc3ccccc3)c(=O)c3ccccc23)c2cc(F)cc(Cl)c2n1CC(=O)O` [Example 243, 2-(3-(3-benzyl-4-oxo-3,4-dihydrophthalazin-1-yl)-7-chloro-5-fluoro-2-methyl-1H-indol-1-yl)acetic acid] registered an IC50 of 33 nM. For the molecule `Cc1c(-c2ccc(=O)n(CCC(F)(F)F)n2)c2cc(F)ccc2n1CC(=O)O` [Example 164, 2-(5-fluoro-2-methyl-3-(6-oxo-1-(3,3,3-trifluoropropyl)-1,6-dihydro-pyridazin-3-yl)-1H-indol-1-yl)acetic acid], the IC50 turned out to be 409 nM. Turning to `Cc1c(-c2ccc(=O)n(Cc3cc(F)c(F)cc3F)n2)c2cc(F)ccc2n1CC(=O)O` [Example 70, 2-(5-fluoro-2-methyl-3-(6-oxo-1-(2,4,5-trifluorobenzyl)-1,6-dihydro-pyridazin-3-yl)-1H-indol-1-yl)acetic acid], the IC50 stood at 16 nM.

Consider `Cc1c(-c2nn(C)c(=O)c3ccccc23)c2cc(Cl)ccc2n1CC(=O)O` [Example 105, 2-(5-chloro-2-methyl-3-(3-methyl-4-oxo-3,4-dihydrophthalazin-1-yl)-1H-indol-1-yl)-acetic acid], for which the IC50 was 121 nM. In turn, `Cc1c(-c2nn(CC3CC3)c(=O)c3ccccc23)c2cc(F)ccc2n1CC(=O)O` [Example 122, 2-(3-(3-(cyclopropylmethyl)-4-oxo-3,4-dihydrophthalazin-1-yl)-5-fluoro-2-methyl-1H-indol-1-yl)acetic acid] displayed an IC50 of 27 nM. Take `Cc1c(-c2ccc(=O)n(Cc3ccccc3)n2)c2cc(Cl)cc(Cl)c2n1CC(=O)O` [Example 234, 2-(3-(1-benzyl-6-oxo-1,6-dihydropyridazin-3-yl)-5,7-dichloro-2-methyl-1H-indol-1-yl)acetic acid]: the IC50 stood at 1000 nM.

For `Cc1c(-c2ccc(=O)n(Cc3cccc(F)c3)n2)c2cc(F)ccc2n1CC(=O)O` [Example 154, 2-(5-Fluoro-3-(1-(3-fluorobenzyl)-6-oxo-1,6-dihydropyridazin-3-yl)-2-methyl-1H-indol-1-yl)acetic acid], the IC50 turned out to be 30 nM.
